Assay results as given in patent publication US20260152487A1 (Sitryx Therapeutics Limited, priority 2021, published 2026).

Molecular target: T1, recombinant human PKM2 (Homo sapiens, UniProt P14618)
T1 construct: His (N); purchased R&D Systems
Test: Human PKM2 activation assay (Kinase-Glo Plus luminescent detection of generated ATP)
Format: biochemical
Conditions: for Emax: percentage activation normalised to DMSO vehicle (LOW) and 5 μM TEPP-46 (HIGH), read-out: hPKM2 Emax; for EC50: recombinant human PKM2 activation, 4-parameter logistic fit, read-out: hPKM2 EC50
Outline: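 N-His-tagged recombinant hPKM2 ([…]) with PEP and ADP was incubated with compound for 60 min at 26 °C, shaking, in 50 mM imidazole, 50 mM KCl, 7 mM MgCl2, 0.01% Tween20, 0.05% BSA, pH 7.2. ATP produced was read by Kinase-Glo Plus luminescence after 15 min.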

T1 sequence (P14618 2-531 limits assumed): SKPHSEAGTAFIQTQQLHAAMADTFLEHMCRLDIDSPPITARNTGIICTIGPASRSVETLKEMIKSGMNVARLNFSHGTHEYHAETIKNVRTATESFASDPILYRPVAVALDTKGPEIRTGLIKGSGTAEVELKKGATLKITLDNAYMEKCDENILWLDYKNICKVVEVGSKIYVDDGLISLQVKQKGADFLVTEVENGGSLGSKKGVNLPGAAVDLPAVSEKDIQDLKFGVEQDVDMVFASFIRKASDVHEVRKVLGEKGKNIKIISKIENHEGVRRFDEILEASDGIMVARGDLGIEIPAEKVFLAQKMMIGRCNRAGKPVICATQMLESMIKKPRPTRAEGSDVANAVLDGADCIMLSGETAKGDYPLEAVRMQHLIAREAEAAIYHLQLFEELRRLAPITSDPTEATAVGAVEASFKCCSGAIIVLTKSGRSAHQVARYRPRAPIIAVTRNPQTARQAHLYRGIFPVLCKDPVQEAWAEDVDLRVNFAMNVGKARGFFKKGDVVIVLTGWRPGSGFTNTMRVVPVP

Emax | EC50 | SMILES
74% | 100 nM | Cn1ccc(S(=O)(=O)c2ccc3c(=O)n(Cc4cccc(OC(F)F)c4)ncc3c2)n1 [Example 198, 2-(3-(difluoromethoxy)benzyl)-6-((1-methyl-1H-pyrazol-3-yl)sulfonyl)phthalazin-1(2H)-one]
91.4% | 109 nM | COc1ccc(F)c(Cn2ncc3cc(S(=O)(=O)c4ccn(C)n4)ccc3c2=O)c1 [Example 199, 2-(2-fluoro-5-methoxybenzyl)-6-((1-methyl-1H-pyrazol-3-yl)sulfonyl)phthalazin-1(2H)-one]
80.2% | 621 nM | Cn1cc(S(=O)(=O)c2ccc3c(=O)n(Cc4cccnc4O)ncc3c2)cn1 [Example 200, 2-((2-hydroxypyridin-3-yl)methyl)-6-((1-methyl-1H-pyrazol-4-yl)sulfonyl)phthalazin-1(2H)-one]
122% | 282 nM | Cc1cccc(Cn2ncc3cc(S(=O)(=O)c4cnn(C)c4)ccc3c2=O)n1 [Example 204, 6-((1-methyl-1H-pyrazol-4-yl)sulfonyl)-2-((6-methylpyridin-2-yl)methyl)phthalazin-1(2H)-one]
104% | 33.3 nM | Cc1c[nH]nc1Cn1ncc2cc(S(=O)(=O)c3ccc4c(c3)CCO4)ccc2c1=O [Example 208, 6-((2,3-dihydrobenzofuran-5-yl)sulfonyl)-2-((4-methyl-1H-pyrazol-3-yl)methyl)phthalazin-1(2H)-one]
118% | 23.2 nM | Cc1cc(Cn2ncc3cc(S(=O)(=O)c4ccc5c(c4)CCO5)ccc3c2=O)n[nH]1 [Example 209, 6-((2,3-dihydrobenzofuran-5-yl)sulfonyl)-2-((5-methyl-1H-pyrazol-3-yl)methyl)phthalazin-1(2H)-one]
87.4% | 318 nM | Cn1ccc(S(=O)(=O)c2ccc3c(=O)n(Cc4ccccc4C(N)=O)ncc3c2)n1 [Example 210, 2-((6-(1-methyl-1H-pyrazol-3-ylsulfonyl)-1-oxophthalazin-2(1H)-yl)methyl)benzamide]
80.7% | 222 nM | O=c1c2ccc(S(=O)(=O)c3ccccn3)cc2cnn1Cc1cc[nH]n1 [Example 211, 2-((1H-pyrazol-3-yl)methyl)-6-(pyridin-2-ylsulfonyl)phthalazin-1(2H)-one]
108% | 23.8 nM | Cn1ccc(Cn2ncc3cc(S(=O)(=O)c4ccc(OC(F)F)cc4)ccc3c2=O)n1 [Example 212, 6-((4-(difluoromethoxy)phenyl)sulfonyl)-2-((1-methyl-1H-pyrazol-3-yl)methyl)phthalazin-1(2H)-one]
107% | 36.5 nM | CC1Cc2cc(S(=O)(=O)c3ccc4c(=O)n(Cc5ccn(C)n5)ncc4c3)ccc2O1 (centres unmarked) [Example 213, 2-((1-methyl-1H-pyrazol-3-yl)methyl)-6-((2-methyl-2,3-dihydrobenzofuran-5-yl)sulfonyl)phthalazin-1(2H)-one]
102% | 254 nM | Cc1nc(S(=O)(=O)c2ccc3c(=O)n(Cc4ccn(C)n4)ncc3c2)cs1 [Example 214, 2-((1-methyl-1H-pyrazol-3-yl)methyl)-6-((2-methylthiazol-4-yl)sulfonyl)phthalazin-1(2H)-one]
93.4% | 25.2 nM | Cn1ccc(Cn2ncc3cc(S(=O)(=O)c4ccc5c(c4)OCCO5)ccc3c2=O)n1 [Example 215, 6-((2,3-dihydrobenzo[b][1,4]dioxin-6-yl)sulfonyl)-2-((1-methyl-1H-pyrazol-3-yl)methyl)phthalazin-1(2H)-one]
103% | 74.3 nM | CCOc1ccc(S(=O)(=O)c2ccc3c(=O)n(Cc4ccn(C)n4)ncc3c2)cc1 [Example 216, 6-((4-ethoxyphenyl)sulfonyl)-2-((1-methyl-1H-pyrazol-3-yl)methyl)phthalazin-1(2H)-one]
115% | 60.2 nM | C[C@@H]1Cc2cc(S(=O)(=O)c3ccc4c(=O)n(Cc5ccn(C)n5)ncc4c3)ccc2O1 [Example 217, (R)-2-((1-methyl-1H-pyrazol-3-yl)methyl)-6-((2-methyl-2,3-dihydrobenzofuran-5-yl)sulfonyl)phthalazin-1(2H)-one]
116% | 192 nM | Cn1ccc(Cn2ncc3cc(S(=O)(=O)c4ccc(OC(F)(F)F)cc4)ccc3c2=O)n1 [Example 218, 20((1-methyl-1H-pyrazol-3-yl)methyl)-6-((4-(trifluoromethoxy)phenyl)sulfonyl)phthalazin-1(2H)-one]
84.7% | 67.7 nM | Cc1coc2ccc(S(=O)(=O)c3ccc4c(=O)n(Cc5cc[nH]n5)ncc4c3)cc12 [Example 220, 2-((1H-pyrazol-3-yl)methyl)-6-((3-methylbenzofuran-5-yl)sulfonyl)phthalazin-1(2H)-one]
115% | 136 nM | O=c1c2ccc(S(=O)(=O)c3ccc4ccoc4c3)cc2cnn1Cc1cc[nH]n1 [Example 222, 2-((1H-pyrazol-3-yl)methyl)-6-(benzofuran-6-ylsulfonyl)phthalazin-1(2H)-one]

Emax | EC50 | SMILES
121% | 43.6 nM | Cc1cc2cc(S(=O)(=O)c3ccc4c(=O)n(Cc5cc[nH]n5)ncc4c3)ccc2o1 [Example 224, 2-((1H-pyrazol-3-yl)methyl)-6-((2-methylbenzofuran-5-yl)sulfonyl)phthalazin-1(2H)-one]
114% | 356 nM | O=c1c2ccc(S(=O)(=O)c3ccc4[nH]ccc4c3)cc2cnn1Cc1cc[nH]n1 [Example 226, 6-((1H-indol-5-yl)sulfonyl)-2-((1H-pyrazol-3-yl)methyl)phthalazin-1(2H)-one]
115% | 35.4 nM | O=c1c2ccc(S(=O)(=O)c3ccc4sccc4c3)cc2cnn1Cc1cc[nH]n1 [Example 227, 2-((1H-pyrazol-3-yl)methyl)-6-(benzo[b]thiophen-5-ylsulfonyl)phthalazin-1(2H)-one]
94.7% | 44.9 nM | O=c1c2ccc(S(=O)(=O)c3ccc4c(n3)OCCO4)cc2cnn1Cc1cc[nH]n1 [Example 229, 2-((1H-pyrazol-3-yl)methyl)-6-((2,3-dihydro-[1,4]dioxino[2,3-b]pyridin-6-yl)sulfonyl)phthalazin-1(2H)-one]
118% | 183 nM | O=c1c2ccc(S(=O)(=O)c3cc4c(cn3)OCCO4)cc2cnn1Cc1cc[nH]n1 [Example 230, 2-((1H-pyrazol-3-yl)methyl)-6-((2,3-dihydro-[1,4]dioxino[2,3-c]pyridin-7-yl)sulfonyl)phthalazin-1(2H)-one]
111% | 93.5 nM | Cn1ccc2cc(S(=O)(=O)c3ccc4c(=O)n(Cc5cc[nH]n5)ncc4c3)ccc21 [Example 231, 2-((1H-pyrazol-3-yl)methyl)-6-((1-methyl-1H-indol-5-yl)sulfonyl)phthalazin-1(2H)-one]
126% | 489 nM | O=c1c2ccc(S(=O)(=O)c3cccnc3)cc2cnn1Cc1cc[nH]n1 [Example 233, 2-((1H-pyrazol-3-yl)methyl)-6-(pyridin-3-ylsulfonyl)phthalazin-1(2H)-one]
91.9% | 394 nM | O=c1c2ccc(S(=O)(=O)c3cnc4c(c3)OCCO4)cc2cnn1Cc1cc[nH]n1 [Example 234, 2-((1H-pyrazol-3-yl)methyl)-6-((2,3-dihydro-[1,4]dioxino[2,3-b]pyridin-7-yl)sulfonyl)phthalazin-1(2H)-one]
114% | 56.6 nM | COc1ccc(S(=O)(=O)c2ccc3c(=O)n(Cc4cc[nH]n4)ncc3c2)cn1 [Example 235, 2-((1H-pyrazol-3-yl)methyl)-6-((6-methoxypyridin-3-yl)sulfonyl)phthalazin-1(2H)-one]
116% | 120 nM | Cn1cc(S(=O)(=O)c2ccc3c(=O)n(Cc4ccn(C5CC5)n4)ncc3c2)cn1 [Example 236, 2-((1-cyclopropyl-1H-pyrazol-3-yl)methyl)-6-((1-methyl-1H-pyrazol-4-yl)sulfonyl)phthalazin-1(2H)-one]
80.7% | 582 nM | O=c1c2ccc(S(=O)(=O)c3ccn(CCO)n3)cc2cnn1Cc1cccnc1O [Example 237, 6-(1-(2-hydroxyethyl)-1H-pyrazol-3-ylsulfonyl)-2-((2-hydroxypyridin-3-yl)methyl)phthalazin-1(2H)-one]
109% | 86 nM | Cn1ccc(Cn2ncc3c(F)c(S(=O)(=O)c4ccccc4)ccc3c2=O)n1 [Example 243, 5-fluoro-2-((1-methyl-1H-pyrazol-3-yl)methyl)-6-(phenylsulfonyl)phthalazin-1(2H)-one]
96.7% | 261 nM | O=c1c2cc(NCCO)c(S(=O)(=O)c3ccccc3)cc2cnn1Cc1cccnc1O [Example 246, 7-((2-hydroxyethyl)amino)-2-((2-hydroxypyridin-3-yl)methyl)-6-(phenylsulfonyl)phthalazin-1(2H)-one]
103% | 252 nM | O=c1c2ccc(S(=O)(=O)c3ccccc3)c(NCCO)c2cnn1Cc1cccnc1O [Example 247, 5-((2-hydroxyethyl)amino)-2-((2-hydroxypyridin-3-yl)methyl)-6-(phenylsulfonyl)phthalazin-1(2H)-one]
103% | 113 nM | Cn1ccc(Cn2ncc3cc(S(=O)(=O)c4ccccc4)ncc3c2=O)n1 [Example 248, 3-((1-methyl-1H-pyrazol-3-yl)methyl)-7-(phenylsulfonyl)pyrido[3,4-d]pyridazin-4(3H)-one]
98.1% | 530 nM | Cn1ccc(Cn2ncc3cc([S+]([O-])c4ccccc4)ncc3c2=O)n1 (centres unmarked) [Example 249, 3-((1-methyl-1H-pyrazol-3-yl)methyl)-7-(phenylsulfinyl)pyrido[3,4-d]pyridazin-4(3H)-one]

SMILES | Emax | EC50
Cn1ccc(Cn2ncc3cc(S(=O)(=O)c4ccccc4)cc(F)c3c2=O)n1 [Example 245, 8-fluoro-2-((1-methyl-1H-pyrazol-3-yl)methyl)-6-(phenylsulfonyl)phthalazin-1(2H)-one] | 103% | 54.2 nM
